Patent US11999739B2, “Antimicrobials methods of making and using the same” (BIOVERSYS AG, priority 2016, dated 2024)

What was measured:
[1] = system: Staphylococcus aureus (S. aureus) 11540 strain; test: Standard microdilution MIC assay, S. aureus; type: cell-based
Outline: (§1)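 Broth microdilution per CLSI M7-A8 guidelines, with reference-strain quality control run in the same design; MIC determined per strain. Activity scored +/− against a 16 micrograms/mL cutoff.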

[2] = system: Escherichia coli strain ATCC25922; test: Standard microdilution MIC assay, E. coli; type: cell-based
Outline: as §1

Structure (SMILES)	MIC [1] [µg/mL]	MIC [2] [µg/mL]
CC(=N)NCC[C@@H]1CCC[C@@H](c2ccc(-n3cc4cc(-c5cc(CCC[C@@H](N)CN)cc(Cl)c5F)[nH]c4nc3=O)cc2)N1 [Compound 289]	≤ 16	≤ 16
COC(=O)c1ccc(-c2cc3cn(-c4ccc([C@@H]5CCC[C@@H](CCNC(C)=N)N5)cc4)c(=O)nc3[nH]2)cc1CCC[C@H](C)N [Compound 291]	≤ 16	≤ 16
CSc1cc(-n2cc3cc(-c4cc(CCC[C@H](C)N)cc(C(F)(F)F)c4)[nH]c3nc2=O)ccc1[C@@H]1CCC[C@@H](CCNC(C)=N)N1CCCF [Compound 292]	≤ 16	≤ 16
CC(=N)NCC[C@@H]1CCC[C@@H](c2ccc(-n3cc4cc(-c5cc(CCC[C@H](C)N)cc(C(F)(F)F)c5)[nH]c4nc3=O)cc2)N1CCCF [Compound 293]	≤ 16	≤ 16
CC(=N)NCC[C@@H]1CCC[C@@H](c2ccc(-n3cc4cc(-c5cc(F)c(C(F)(F)F)c(CCC[C@H](C)N)c5)[nH]c4nc3=O)cc2)N1 [Compound 318]	≤ 16	≤ 16
COc1cc(-n2cc3cc(-c4cc(CCC[C@H](C)N)cc(Cl)c4F)[nH]c3nc2=O)cc(F)c1[C@@H]1CCC[C@@H](CCNC(C)=N)N1 [Compound 319]	≤ 16	≤ 16
C=C[C@H](N)CCCc1cc(Cl)c(F)c(-c2cc3cn(-c4cc(F)c([C@@H]5CCC[C@@H](CCNC(C)=N)N5)c(OC)c4)c(=O)nc3[nH]2)c1 [Compound 320]	≤ 16	≤ 16
COc1cc(-n2cc3cc(-c4cc(CCC[C@@H](N)C5CC5)cc(Cl)c4F)[nH]c3nc2=O)cc(F)c1[C@@H]1CCC[C@@H](CCNC(C)=N)N1 [Compound 321]	≤ 16	≤ 16
COc1cc(-n2cc3cc(-c4cc(CCC[C@@H](N)CO)cc(C(F)(F)F)c4F)[nH]c3nc2=O)cc(F)c1[C@@H]1CCC[C@@H](CCNC(C)=N)N1 [Compound 323]	≤ 16	≤ 16
CC(=N)NCC[C@@H]1CCC[C@@H](c2ccc(-n3cc4cc(-c5cc(CCC[C@H](C)N)cc(Cl)c5F)[nH]c4nc3=O)cc2F)N1CCCF [Compound 325]	≤ 16	≤ 16
CSc1cc(-n2cc3cc(-c4cc(CCC[C@@H](N)C5CC5)cc(C(F)(F)F)c4)[nH]c3nc2=O)ccc1[C@@H]1CCC[C@@H](CCNC(C)=N)N1CCCF [Compound 326]	≤ 16	≤ 16
CC(=N)NCC[C@@H]1CCC[C@@H](c2ccc(-n3cc4cc(-c5cc(CCC[C@@H](N)C6CC6)cc(C(F)(F)F)c5)[nH]c4nc3=O)cc2F)N1CCCF [Compound 327]	≤ 16	≤ 16
CC(=N)NCC[C@@H]1CCC[C@@H](c2ccc(-n3cc4cc(-c5cc(CCC[C@H](C)N)cc(C(F)(F)F)c5)[nH]c4nc3=O)cc2F)N1CCCF [Compound 328]	≤ 16	≤ 16
CSc1cc(-n2cc3cc(-c4cc(CCC[C@H](C)N)cc(C(F)(F)F)c4)[nH]c3nc2=O)cc(F)c1[C@@H]1CCC[C@@H](CCNC(C)=N)N1CCCF [Compound 329]	≤ 16	≤ 16
CC(=N)NCC[C@@H]1CCC[C@@H](c2ccc(-n3cc4cc(-c5cc(CCC[C@@H](N)C6CC6)cc(C(F)(F)F)c5)[nH]c4nc3=O)cc2)N1CCCF [Compound 330]	≤ 16	≤ 16
CSc1cc(-n2cc3cc(-c4cc(CCC[C@H](C)N)cc(Cl)c4F)[nH]c3nc2=O)ccc1[C@@H]1CCC[C@@H](CCNC(C)=N)N1CCCF [Compound 331]	≤ 16	≤ 16
CC(=N)NCC[C@@H]1CCC[C@@H](c2ccc(-n3cc4cc(-c5cc(CCC[C@@H](N)C6CC6)cc(Cl)c5F)[nH]c4nc3=O)cc2F)N1CCCF [Compound 332]	≤ 16	≤ 16
CSc1cc(-n2cc3cc(-c4cc(CCC[C@@H](N)C5CC5)cc(Cl)c4F)[nH]c3nc2=O)ccc1[C@@H]1CCC[C@@H](CCNC(C)=N)N1CCCF [Compound 333]	≤ 16	≤ 16

The next lines start with the values.

MIC [1] [µg/mL]	MIC [2] [µg/mL]	Structure (SMILES)
≤ 16	≤ 16	CC(=N)NCC[C@@H]1CCC[C@@H](c2ccc(-n3cc4cc(-c5cc(CCC[C@@H](N)C6CC6)cc(Cl)c5F)[nH]c4nc3=O)cc2S(C)(=O)=O)N1 [Compound 273]
≤ 16	≤ 16	C=C[C@H](N)CCCc1cc(Cl)c(F)c(-c2cc3cn(-c4cc(F)c([C@@H]5CCC[C@@H](CCNC(C)=N)N5)c(SC)c4)c(=O)nc3[nH]2)c1 [Compound 274]
≤ 16	≤ 16	CSc1cc(-n2cc3cc(-c4cc(CCC[C@@H](N)C5CC5)cc(Cl)c4F)[nH]c3nc2=O)cc(F)c1[C@@H]1CCC[C@@H](CCNC(C)=N)N1 [Compound 275]
≤ 16	≤ 16	CSC[C@H](N)CCCc1cc(Cl)c(F)c(-c2cc3cn(-c4ccc([C@@H]5CCC[C@@H](CCNC(C)=N)N5)cc4)c(=O)nc3[nH]2)c1 [Compound 276]
≤ 16	≤ 16	COCCN1[C@H](CCNC(C)=N)CCC[C@H]1c1ccc(-n2cc3cc(-c4cc(CCC[C@H](C)N)cc(Cl)c4F)[nH]c3nc2=O)cc1 [Compound 277]
≤ 16	≤ 16	CC(=N)NCC[C@@H]1CCC[C@@H](c2ccc(-n3cc4cc(-c5cc(CCC[C@H](C)N)cc(Cl)c5F)[nH]c4nc3=O)cc2)N1Cc1cocn1 [Compound 278]
≤ 16	≤ 16	CC(=N)NCC[C@@H]1CCC[C@@H](c2c(F)cc(-n3cc4cc(-c5cc(CCC[C@@H](N)CF)cc(Cl)c5F)[nH]c4nc3=O)cc2F)N1 [Compound 279]
≤ 16	≤ 16	COC[C@H](N)CCCc1cc(OC(F)(F)F)c(F)c(-c2cc3cn(-c4cc(F)c([C@@H]5CCC[C@@H](CCNC(C)=N)N5)c(F)c4)c(=O)nc3[nH]2)c1 [Compound 280]
≤ 16	≤ 16	CC(=N)NCC[C@@H]1CCC[C@@H](c2c(F)cc(-n3cc4cc(-c5cc(CCC[C@@H](N)CO)cc(Cl)c5F)[nH]c4nc3=O)cc2F)N1 [Compound 281]
≤ 16	≤ 16	CC(=N)NCC[C@@H]1CCC[C@@H](c2c(F)cc(-n3cc4cc(-c5cc(CCC[C@H](C)N)cc(Cl)c5F)[nH]c4nc3=O)cc2N2CCOCC2)N1 [Compound 282]
≤ 16	≤ 16	CN=C(C)NCC[C@@H]1CCC[C@@H](c2ccc(-n3cc4cc(-c5cc(CCC[C@H](C)N)cc(Cl)c5F)[nH]c4nc3=O)cc2)N1 [Compound 283]
≤ 16	≤ 16	CC(=N)NCC[C@@H]1CCC[C@@H](c2ccc(-n3cc4cc(-c5cc(CCC[C@@H](N)CS(C)(=O)=O)cc(Cl)c5F)[nH]c4nc3=O)cc2)N1 [Compound 284]
≤ 16	≤ 16	CC(=N)NCC[C@@H]1CCC[C@@H](c2c(F)cc(-n3cc4cc(-c5cc(CCC[C@@H](N)C6CC6)cc(C(F)(F)F)c5)[nH]c4nc3=O)cc2F)N1 [Compound 285]
≤ 16	≤ 16	CSc1cc(-n2cc3cc(-c4cc(CCC[C@@H](N)C5CC5)cc(C(F)(F)F)c4)[nH]c3nc2=O)cc(F)c1[C@@H]1CCC[C@@H](CCNC(C)=N)N1 [Compound 286]
≤ 16	≤ 16	CC(=N)NCC[C@@H]1CCC[C@@H](c2ccc(-n3cc4cc(-c5ccc(C(F)(F)F)c(CCC[C@H](C)N)c5)[nH]c4nc3=O)cc2)N1 [Compound 287]
≤ 16	≤ 16	CC(=N)NCC[C@@H]1CCC[C@@H](c2ccc(-n3cc4cc(-c5cc(CCC[C@H](C)N)cc(Cl)c5F)[nH]c4nc3=O)cc2)N1Cc1c(C)ncn1C [Compound 288]
